Assay results published in ChEMBL document CHEMBL1821555, “Identification of a series of 4-[3-(quinolin-2-yl)-1,2,4-oxadiazol-5-yl]piperazinyl ureas as potent smoothened antagonist hedgehog pathway inhibitors” (Bioorg Med Chem Lett, 2011).

Tests used:
[1] = biological target: T1, Protein smoothened (Homo sapiens, UniProt Q99835); test: Displacement of Bodipy-labelled cyclopamine from Smo expressed in COS-1 cells in presence of 2% FBS after 4 to 6 hrs by FACS flow cytometric analysis; assay type: cell-based
T1 sequence (Q99835 whole entry): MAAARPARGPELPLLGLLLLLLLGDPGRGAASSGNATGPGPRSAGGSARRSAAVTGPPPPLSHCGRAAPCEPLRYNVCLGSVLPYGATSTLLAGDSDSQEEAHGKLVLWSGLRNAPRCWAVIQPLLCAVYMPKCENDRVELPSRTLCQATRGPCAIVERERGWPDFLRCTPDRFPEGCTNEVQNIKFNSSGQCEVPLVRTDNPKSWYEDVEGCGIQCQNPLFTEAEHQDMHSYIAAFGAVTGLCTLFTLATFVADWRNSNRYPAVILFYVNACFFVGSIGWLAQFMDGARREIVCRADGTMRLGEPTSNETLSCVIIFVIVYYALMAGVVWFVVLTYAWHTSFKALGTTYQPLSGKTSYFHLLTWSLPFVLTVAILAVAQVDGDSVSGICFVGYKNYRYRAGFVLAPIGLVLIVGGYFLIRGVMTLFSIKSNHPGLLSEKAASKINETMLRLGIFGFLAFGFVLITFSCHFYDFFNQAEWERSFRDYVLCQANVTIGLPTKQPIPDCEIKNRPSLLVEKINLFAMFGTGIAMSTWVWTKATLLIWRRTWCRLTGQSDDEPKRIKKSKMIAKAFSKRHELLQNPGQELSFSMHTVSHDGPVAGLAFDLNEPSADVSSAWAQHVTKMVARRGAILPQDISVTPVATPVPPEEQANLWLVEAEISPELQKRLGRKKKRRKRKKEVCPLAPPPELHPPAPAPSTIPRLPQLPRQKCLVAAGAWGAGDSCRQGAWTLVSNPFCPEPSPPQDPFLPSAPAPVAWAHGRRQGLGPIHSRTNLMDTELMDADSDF

[2] = Lipophilicity, log D of the compound; assay type: physicochemical; conditions: octanol/water
[3] = biological target: T1, Protein smoothened; test: Inhibition of Bodipy-labelled cyclopamine binding to Smo expressed in COS-1 cells in presence of 20% NHS after 4 to 6 hrs by FACS flow cytometric analysis; assay type: cell-based
[4] = biological target: T1, Protein smoothened; test: Inhibition of Bodipy-labelled cyclopamine binding to Smo expressed in COS-1 cells at 2 uM in presence of 2% FBS after 4 to 6 hrs by FACS flow cytometric analysis; assay type: cell-based
[5] = system: Shh Light II; test: Inhibition of Shh signaling in mouse Shh-light2 cells by Gli-dependent firefly luciferase reporter gene assay; assay type: functional, cell-based
[6] = Intrinsic clearance in rat liver microsomes assessed per mg of protein; assay type: ADME, Microsome
[7] = Clearance in rat; assay type: ADME, organism-based; conditions: in vivo
[8] = Oral bioavailability in rat; assay type: ADME, organism-based; conditions: in vivo
[9] = biological target: CYP2C9 (Homo sapiens, UniProt P11712); test: Inhibition of CYP2C9 at 10 uM; assay type: ADME
CYP2C9, sequence (P11712 whole entry): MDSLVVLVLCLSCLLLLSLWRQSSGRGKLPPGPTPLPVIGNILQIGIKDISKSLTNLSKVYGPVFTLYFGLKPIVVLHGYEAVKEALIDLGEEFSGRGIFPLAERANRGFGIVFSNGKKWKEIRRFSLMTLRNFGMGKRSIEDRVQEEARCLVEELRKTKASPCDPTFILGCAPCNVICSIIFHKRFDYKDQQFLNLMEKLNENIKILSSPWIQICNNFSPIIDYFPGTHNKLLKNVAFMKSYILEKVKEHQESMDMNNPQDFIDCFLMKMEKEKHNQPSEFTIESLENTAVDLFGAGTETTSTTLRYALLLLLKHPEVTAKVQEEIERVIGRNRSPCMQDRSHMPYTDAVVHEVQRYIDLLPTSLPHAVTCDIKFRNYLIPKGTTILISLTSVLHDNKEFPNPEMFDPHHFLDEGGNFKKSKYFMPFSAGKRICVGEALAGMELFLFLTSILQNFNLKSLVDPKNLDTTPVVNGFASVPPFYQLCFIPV

[10] = biological target: CYP3A4 (Homo sapiens, UniProt P08684); test: Inhibition of CYP3A4 at 10 uM; assay type: ADME
CYP3A4, sequence (P08684 whole entry): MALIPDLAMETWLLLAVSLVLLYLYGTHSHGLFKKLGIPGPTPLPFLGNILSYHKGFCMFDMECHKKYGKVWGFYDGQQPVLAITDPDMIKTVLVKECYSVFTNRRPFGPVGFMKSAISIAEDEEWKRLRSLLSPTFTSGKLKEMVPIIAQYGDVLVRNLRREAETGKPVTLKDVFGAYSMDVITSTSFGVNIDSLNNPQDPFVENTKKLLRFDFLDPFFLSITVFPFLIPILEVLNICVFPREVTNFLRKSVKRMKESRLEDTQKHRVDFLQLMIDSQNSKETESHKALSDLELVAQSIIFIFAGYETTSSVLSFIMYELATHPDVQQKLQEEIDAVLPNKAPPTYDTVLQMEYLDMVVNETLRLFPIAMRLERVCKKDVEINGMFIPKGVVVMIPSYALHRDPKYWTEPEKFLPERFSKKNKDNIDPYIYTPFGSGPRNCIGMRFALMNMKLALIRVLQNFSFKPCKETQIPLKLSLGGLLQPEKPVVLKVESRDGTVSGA

[11] = biological target: Cytochrome P450 2D6 (Homo sapiens, UniProt P10635); test: Inhibition of CYP2D6; assay type: ADME
Cytochrome P450 2D6, sequence (P10635 whole entry): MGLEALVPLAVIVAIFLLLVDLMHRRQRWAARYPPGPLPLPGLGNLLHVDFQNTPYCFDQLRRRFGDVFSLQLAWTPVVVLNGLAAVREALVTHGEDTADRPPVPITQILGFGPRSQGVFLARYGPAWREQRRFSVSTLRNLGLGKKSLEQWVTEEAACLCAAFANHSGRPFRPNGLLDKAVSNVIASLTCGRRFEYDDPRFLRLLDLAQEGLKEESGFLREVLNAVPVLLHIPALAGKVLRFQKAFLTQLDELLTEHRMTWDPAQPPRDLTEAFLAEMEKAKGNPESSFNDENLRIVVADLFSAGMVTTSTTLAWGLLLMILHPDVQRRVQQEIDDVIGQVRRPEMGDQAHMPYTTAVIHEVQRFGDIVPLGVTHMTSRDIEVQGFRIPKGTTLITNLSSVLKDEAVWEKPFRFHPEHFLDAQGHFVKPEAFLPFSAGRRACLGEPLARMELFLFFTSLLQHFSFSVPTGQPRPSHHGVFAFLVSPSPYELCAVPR

[12] = biological target: Cytochrome P450 2C9 (Homo sapiens, UniProt P11712); test: Inhibition of CYP2C9; assay type: ADME
Cytochrome P450 2C9, sequence (P11712 whole entry): as the sequence (P11712 whole entry) above

[13] = biological target: Cytochrome P450 3A4 (Homo sapiens, UniProt P08684); test: Inhibition of CYP3A4; assay type: ADME
Cytochrome P450 3A4, sequence (P08684 whole entry): as the sequence (P08684 whole entry) above

[14] = biological target: Potassium voltage-gated channel subfamily H member 2 (hERG), Homo sapiens; test: Inhibition of human ERG
[15] = Fraction unbound in human plasma; assay type: ADME, cell-free
[16] = Terminal half life in rat; assay type: ADME, organism-based; conditions: in vivo, read-out: beta t1/2 (converted)
[17] = system: Shh Light II; test: Inhibition of Shh signaling in mouse Shh-light2 cells at 10 uM by Gli-dependent firefly luciferase reporter gene assay; assay type: functional
[18] = biological target: T1, Protein smoothened; test: Inhibition of Bodipy-labelled cyclopamine binding to Smo expressed in COS-1 cells at 10 uM in presence of 2% FBS after 4 to 6 hrs by FACS flow cytometric analysis; assay type: cell-based
[19] = Intrinsic clearance in dog liver microsomes assessed per mg of protein; assay type: ADME, Canis lupus familiaris, Microsome
[20] = Intrinsic clearance in human liver microsomes assessed per mg of protein; assay type: ADME, Microsome
[21] = Fraction unbound in rat plasma; assay type: ADME, cell-free
[22] = system: Potassium voltage-gated channel subfamily H member 2 (hERG), Homo sapiens; test: Inhibition of human ERG at 10 uM
[23] = biological target: T1, Protein smoothened; test: Inhibition of Bodipy-labelled cyclopamine binding to Smo expressed in COS-1 cells at 25 uM in presence of 20% NHS after 4 to 6 hrs by FACS flow cytometric analysis; assay type: cell-based
[24] = system: Shh Light II; test: Inhibition of Shh signaling in mouse Shh-light2 cells at 20 uM by Gli-dependent firefly luciferase reporter gene assay; assay type: functional

SMILES	IC50 [1] [nM]	IC50 [3] [nM]	IC50 [5] [nM]	other results
CS(=O)(=O)c1ccc(NC(=O)N2CCC(c3nc(-c4ccc5ccccc5n4)no3)CC2)c(Cl)c1	1500	4100	–	logD [2]: 2.8
COc1ccccc1NC(=O)N1CCC(c2nc(-c3ncccc3C)no2)CC1	–	–	–	inhibition [4]: 51%
Cn1c(-c2noc(N3CCN(C(=O)NC4CCCCC4)CC3)n2)nc2ccccc21	3	33	5	microsomal CLint [6]: 119 µL/min/mg; clearance [7]: 26 mL/min/kg; logD [2]: 2.57; bioavailability [8]: 10%
O=C(NC1CCOCC1)N1CCC(c2nc(-c3ccc4ccccc4n3)no2)CC1	1700	8600	480	–
Cn1c(-c2noc(C3CCN(C(=O)Nc4ccccc4Cl)CC3)n2)nc2ccccc21	1000	4500	430	microsomal CLint [6]: 174 µL/min/mg; logD [2]: 2.85; inhibition at 10 µM [9]: 44%; inhibition at 10 µM [10]: 35%
COc1cccc2nc(-c3noc(C4CCN(C(=O)Nc5ccccc5Cl)CC4)n3)ccc12	> 2500	> 2500	–	–
Cn1c(-c2noc(N3CCN(C(=O)NC4CCC(F)(F)CC4)CC3)n2)nc2ccccc21	7	25	–	–
O=C(NC1CCCCC1)N1CCC(c2nc(-c3ccc4ccccc4n3)no2)CC1	280	1600	57	microsomal CLint [6]: > 300 µL/min/mg; fraction unbound [15]: 0.005
COc1ccccc1NC(=O)N1CC(c2nc(-c3ccc4ccccc4n3)no2)C1	–	–	–	inhibition at 10 µM [17]: 28%; inhibition [18]: 39%
O=C(OCc1ccccc1)N1CCC(c2nc(-c3ccc4ccccc4n3)no2)CC1	> 2500	–	> 2500	–
COc1ccccc1N(C)C(=O)N1CCC(c2nc(-c3ccc4ccccc4n3)no2)CC1	1400	–	3100	–
O=C(CC1CCCCCC1)N1CCC(c2nc(-c3ccc4ccccc4n3)no2)CC1	1000	–	840	–
N#Cc1ccccc1NC(=O)N1CCC(c2nc(-c3ccc4ccccc4n3)no2)CC1	490	–	190	–
CN1CCC(NC(=O)N2CCC(c3nc(-c4ccc5ccccc5n4)no3)CC2)CC1	3400	–	3200	–

More lines, main results first:

IC50 [1] [nM]	IC50 [3] [nM]	IC50 [5] [nM]	SMILES	other results
170	700	140	O=C(Nc1ccccc1Cl)N1CCN(c2nc(-c3ccc4ccccc4n3)no2)CC1	logD [2]: 2.95; IC50 [11]: > 25000 nM; IC50 [12]: > 25000 nM; IC50 [13]: > 25000 nM; IC50 [14]: 12000 nM
860	1600	360	O=C(NC1CCS(=O)(=O)CC1)N1CCC(c2nc(-c3ccc4ccccc4n3)no2)CC1	microsomal CLint [6]: 8 µL/min/mg; clearance [7]: 40 mL/min/kg; half-life [16]: 0.9 h
> 2500	> 2500	–	COc1ccc2ccc(-c3noc(C4CCN(C(=O)Nc5ccccc5Cl)CC4)n3)nc2c1	–
1800	4800	850	O=C(NC1CC[S+]([O-])CC1)N1CCC(c2nc(-c3ccc4ccccc4n3)no2)CC1 (stereo not drawn)	–
690	760	350	Cn1c(-c2noc(C3CCN(C(=O)NC4CCS(=O)(=O)CC4)CC3)n2)nc2ccccc21	–
380	3500	510	O=C(Nc1ccccc1Cl)N1CCC(c2nc(-c3ccc4ccccc4n3)no2)CC1	microsomal CLint [6]: > 200 µL/min/mg; microsomal CLint [19]: 65 µL/min/mg; microsomal CLint [20]: 45 µL/min/mg; clearance [7]: 11 mL/min/kg; logD [2]: 4.25; fraction unbound [21]: 0.01; fraction unbound [15]: 0.005; bioavailability [8]: 38%; inhibition at 10 µM [9]: 62%; inhibition at 10 µM [10]: 58%; inhibition [22]: 62%
2500	–	2700	O=C(NC1CCC(O)CC1)N1CCC(c2nc(-c3ccc4ccccc4n3)no2)CC1 (stereo not drawn)	inhibition [23]: 65%
350	1100	89	Cn1c(-c2noc(C3CCN(C(=O)NC4CCCCC4)CC3)n2)nc2ccccc21	microsomal CLint [6]: 192 µL/min/mg; clearance [7]: 26 mL/min/kg; fraction unbound [21]: 0.02; bioavailability [8]: 59%; half-life [16]: 1.3 h
1100	–	2000	O=C(Nc1cnccc1Cl)N1CCC(c2nc(-c3ccc4ccccc4n3)no2)CC1	–
4700	–	–	COc1ccccc1NC(=O)N1CCC(c2nnc(-c3ccc4ccccc4n3)o2)CC1	inhibition at 20 µM [24]: 57%
